Reference: article PMC10620989, “Going beyond Binary: Rapid Identification of Protein–Protein Interaction Modulators Using a Multifragment Kinetic Target-Guided Synthesis Approach” (Journal of Medicinal Chemistry, 2023)
Where two headings read alike, the source gives them in different places.

Tests used:
[1] = target: T1, Mcl-1 (Mus musculus, UniProt P97287); assay: Multifragment KTGS screen against Mcl-1 (5 TA x 38 SZ per well), LC-MS/MS; details: for KTGS hit call against Mcl-1: multifragment incubation, 10 µM Mcl-1, LC-MS/MS traces with vs without protein; for Amplification coefficient 5TA x 38SZ: multifragment KTGS, 190 combinations per well, 10 μM Mcl-1, 20 μM each fragment, pH 7.4, 37 °C, 10 h, peak area with protein / without protein
[2] = target: GST-tagged mouse Mcl-1-(152–309) (Mus musculus, UniProt P97287); assay: Fluorescence polarization competitive binding assay, GST-Mcl-1 / FITC-Bim-BH3; details: for inhibition at 100 µM: read-out: inhibition in the fluorescence polarization assay, fragments tested individually; for inhibition at 50 µM: compound at 50 µM
[3] = target: T1, Mcl-1; assay: Binary KTGS incubation (1 TA x 1 SZ) with Mcl-1, LC-MS/MS; details: binary incubation mixtures with and without Mcl-1
[4] = FP, GST-Mcl-1 and fluorescein-labeled Bim BH3 peptide, read-out: IC50 on Mcl-1

T1 sequence (P97287 whole entry, the tested form may be a part): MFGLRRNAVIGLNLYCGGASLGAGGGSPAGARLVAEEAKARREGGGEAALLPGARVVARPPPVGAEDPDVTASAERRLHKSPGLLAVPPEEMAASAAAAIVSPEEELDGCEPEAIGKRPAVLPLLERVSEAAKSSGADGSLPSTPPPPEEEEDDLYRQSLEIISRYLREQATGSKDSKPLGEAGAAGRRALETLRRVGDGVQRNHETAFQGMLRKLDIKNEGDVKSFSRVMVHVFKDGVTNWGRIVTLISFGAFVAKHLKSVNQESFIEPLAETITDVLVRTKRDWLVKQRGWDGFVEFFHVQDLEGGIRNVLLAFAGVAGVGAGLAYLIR
Chain of GST-tagged mouse Mcl-1-(152–309) (P97287 152-309): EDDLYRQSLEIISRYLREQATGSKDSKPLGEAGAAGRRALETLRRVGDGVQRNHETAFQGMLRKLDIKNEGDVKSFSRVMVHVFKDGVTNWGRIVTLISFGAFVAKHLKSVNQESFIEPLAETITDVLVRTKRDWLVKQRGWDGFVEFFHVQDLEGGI

Row | KTGS hit call against Mcl-1 [1] | Amplification coefficient 1TA x 1SZ [3] | Amplification coefficient 5TA x 38SZ [1] | inhibition at 50 µM ([2]; FP) | IC50 [2, 4] | Structure (SMILES) | inhibition at 100 µM [2] | IC50 ([2]; IC50 on Mcl-1)
1 | non-hit |  |  |  |  | CC(=O)Nc1ccc(S(=O)(=O)NC(=O)Cn2c3ccccc3c3ccccc32)cc1 [SZ3TA15] |  | 
2 |  |  |  |  |  | [N-]=[N+]=NS(=O)(=O)c1ccc(NCCSc2ccccc2)c([N+](=O)[O-])c1 [SZ4] | 23% | 
3 |  | 10 | 20 | 19.2% |  | COc1cc2c(cc1OC)C(c1ccccc1)N(Cc1ccc(S(=O)(=O)NC(=O)CCCN3C(=O)C(c4ccc(F)cc4F)=C(c4ccc(F)cc4F)C3=O)cc1)CC2 (stereo not shown) [SZ8TA20, O=C(NS(C1=CC=C(CN2CCC(C=C(OC)C(OC)=C3)=C3C2C4=CC=CC=C4)C=C1)(=O)=O)CCCN5C(C(C6=C(F)C=C(F)C=C6)=C(C7=CC=C(F)C=C7F)C5=O)=O] |  | 
4 |  | 18 | 22 | > 99% | 20.4 µM | [N-]=[N+]=NS(=O)(=O)c1ccc(CN(CCSc2ccccc2)Cc2ccc(S(=O)(=O)NC(=O)c3ccc(CCc4ccccn4)cc3)cc2)cc1 [SZ9TA17, O=C(NS(C1=CC=C(CN(CC2=CC=C(S(=O)(N=[N+]=[N-])=O)C=C2)CCSC3=CC=CC=C3)C=C1)(=O)=O)C4=CC=C(CCC5=NC=CC=C5)C=C4] |  | 
5 |  | 8 | 15 | 47.6% |  | [N-]=[N+]=NS(=O)(=O)c1ccc(CN(CCSc2ccccc2)Cc2ccc(S(=O)(=O)NC(=O)c3ccc(-c4ccccn4)cc3)cc2)cc1 [SZ9TA25, O=C(NS(C1=CC=C(CN(CCSC2=CC=CC=C2)CC3=CC=C(S(=O)(N=[N+]=[N-])=O)C=C3)C=C1)(=O)=O)C4=CC=C(C5=NC=CC=C5)C=C4] |  | 
6 |  |  |  |  |  | [N-]=[N+]=NS(=O)(=O)c1ccc(CN(CCSc2ccccc2)Cc2ccc(S(=O)(=O)N=[N+]=[N-])cc2)cc1 [SZ9] | 13% | 
7 |  | 8 | 10 | 37.4% |  | NS(=O)(=O)c1ccc(CN(CCSc2ccccc2)Cc2ccc(S(=O)(=O)NC(=O)Cn3c4ccccc4c4ccccc43)cc2)cc1 [SZ10TA15, O=C(NS(C1=CC=C(CN(CC2=CC=C(S(=O)(N)=O)C=C2)CCSC3=CC=CC=C3)C=C1)(=O)=O)CN4C(C=CC=C5)=C5C6=C4C=CC=C6] |  | 
8 |  | 5 | 12 | 93.6% |  | NS(=O)(=O)c1ccc(CN(CCSc2ccccc2)Cc2ccc(S(=O)(=O)NC(=O)c3ccc(-c4ccccn4)cc3)cc2)cc1 [SZ10TA25, O=C(NS(C1=CC=C(CN(CCSC2=CC=CC=C2)CC3=CC=C(S(=O)(N)=O)C=C3)C=C1)(=O)=O)C4=CC=C(C5=NC=CC=C5)C=C4] |  | 
9 |  | 6 | 7 | 64.1% |  | NS(=O)(=O)c1ccc(CN(CCSc2ccccc2)Cc2ccc(S(=O)(=O)NC(=O)CC3Sc4ccccc4NC3=O)cc2)cc1 (stereo not shown) [SZ10TA34, O=C(NS(C1=CC=C(CN(CCSC2=CC=CC=C2)CC3=CC=C(S(=O)(N)=O)C=C3)C=C1)(=O)=O)CC4SC5=CC=CC=C5NC4=O] |  | 
10 |  | 40 | 20 | 12.4% |  | NS(=O)(=O)c1ccc(CN(CCSc2ccccc2)Cc2ccc(S(=O)(=O)NC(=O)c3ccc4oc(-c5ccccc5)cc4c3)cc2)cc1 [SZ10TA41, O=C(NS(C1=CC=C(CN(CCSC2=CC=CC=C2)CC3=CC=C(S(=O)(N)=O)C=C3)C=C1)(=O)=O)C4=CC(C=C(C5=CC=CC=C5)O6)=C6C=C4] |  | 
11 |  | 9 | 12 | 63.4% |  | NS(=O)(=O)c1ccc(CN(CCSc2ccccc2)Cc2ccc(S(=O)(=O)NC(=O)c3cccc(NCCc4ccccc4)c3)cc2)cc1 [SZ10TA44, O=C(NS(C1=CC=C(CN(CCSC2=CC=CC=C2)CC3=CC=C(S(=O)(N)=O)C=C3)C=C1)(=O)=O)C4=CC(NCCC5=CC=CC=C5)=CC=C4] |  | 
12 | non-hit |  |  |  |  | CC(C)(C)c1ccc(-c2ccc(S(=O)(=O)NC(=O)c3ccccc3)cc2)cc1 [SZ11TA1] |  | 
13 |  | 7 | 12 | 63.6% |  | CC(C)(C)c1ccc(-c2ccc(S(=O)(=O)NC(=O)c3ccc4c(ccn4Cc4ccc(C(F)(F)F)cc4C(F)(F)F)c3)cc2)cc1 [SZ11TA30, O=C(NS(C1=CC=C(C2=CC=C(C(C)(C)C)C=C2)C=C1)(=O)=O)C3=CC(C=CN4CC5=CC=C(C(F)(F)F)C=C5C(F)(F)F)=C4C=C3] |  | 
14 |  | 5.5 | 8 | > 99% | 21.9 µM | Cn1cc(C(=O)C2CCCCC2)c2cc(C(=O)NS(=O)(=O)c3ccc(-c4ccc(C(C)(C)C)cc4)cc3)ccc21 [SZ11TA40, O=C(NS(C1=CC=C(C2=CC=C(C(C)(C)C)C=C2)C=C1)(=O)=O)C3=CC(C(C(C4CCCCC4)=O)=CN5C)=C5C=C3] |  | 
15 |  | 4 | 7 | 54.1% |  | CC1(C)CCN(c2ccc(C(=O)NS(=O)(=O)c3ccc(CNc4cccc([N+](=O)[O-])c4)cc3)cc2)CC1 [SZ12TA2, O=C(NS(C1=CC=C(CNC2=CC=CC([N+]([O-])=O)=C2)C=C1)(=O)=O)C(C=C3)=CC=C3N4CCC(C)(C)CC4] |  | 
16 |  | 15 | 24 | 93.1% |  | Cn1cc(C(=O)C2CCCCC2)c2cc(C(=O)NS(=O)(=O)c3ccc(COc4ccc5c(=O)cc(-c6ccccc6)oc5c4)cc3)ccc21 [SZ14TA40, O=C(NS(C1=CC=C(COC2=CC=C(C(C=C(C3=CC=CC=C3)O4)=O)C4=C2)C=C1)(=O)=O)C5=CC=C6C(C(C(C7CCCCC7)=O)=CN6C)=C5] |  | 
17 |  | 6 | 7 | 58.8% |  | O=C(NS(=O)(=O)c1ccc(CN(CCSc2ccccc2)Cc2c(F)cccc2Cl)cc1)c1ccc(-c2ccc(F)cc2)cc1 [SZ15TA14, O=C(NS(C1=CC=C(CN(CCSC2=CC=CC=C2)CC3=C(F)C=CC=C3Cl)C=C1)(=O)=O)C4=CC=C(C5=CC=C(F)C=C5)C=C4] |  | 
18 |  | 10 | 9 | 53.6% |  | O=C(Cn1c2ccccc2c2ccccc21)NS(=O)(=O)c1ccc(CN(CCSc2ccccc2)Cc2c(F)cccc2Cl)cc1 [SZ15TA15, O=C(NS(C1=CC=C(CN(CCSC2=CC=CC=C2)CC3=C(F)C=CC=C3Cl)C=C1)(=O)=O)CN4C(C=CC=C5)=C5C6=C4C=CC=C6] |  | 
19 |  | 4 | 12 | 98.1% | 31.5 µM | O=C(NS(=O)(=O)c1ccc(-c2ccc(C(F)(F)F)cc2)cc1)c1cccc(NCCc2ccccc2)c1 [SZ16TA44, O=C(NS(C1=CC=C(C2=CC=C(C(F)(F)F)C=C2)C=C1)(=O)=O)C3=CC(NCCC4=CC=CC=C4)=CC=C3] |  | 
20 |  | 4 | 8 | > 99% | 8.4 µM | COc1cccc(CN(CCSc2ccccc2)Cc2ccc(S(=O)(=O)NC(=O)c3ccc(OC(F)(F)F)cc3)cc2)c1 [SZ17TA8, O=C(NS(C1=CC=C(CN(CCSC2=CC=CC=C2)CC3=CC(OC)=CC=C3)C=C1)(=O)=O)C4=CC=C(OC(F)(F)F)C=C4] |  | 
21 |  | 4 | 13 | 60.6% |  | COc1cccc(CN(CCSc2ccccc2)Cc2ccc(S(=O)(=O)NC(=O)Cn3c4ccccc4c4ccccc43)cc2)c1 [SZ17TA15, O=C(NS(C1=CC=C(CN(CC2=CC(OC)=CC=C2)CCSC3=CC=CC=C3)C=C1)(=O)=O)CN4C(C=CC=C5)=C5C6=C4C=CC=C6] |  | 
22 |  | 4 | 7 | 93.6% |  | COc1cccc(CN(CCSc2ccccc2)Cc2ccc(S(=O)(=O)NC(=O)c3ccc(-c4ccccn4)cc3)cc2)c1 [SZ17TA25, O=C(NS(C1=CC=C(CN(CCSC2=CC=CC=C2)CC3=CC(OC)=CC=C3)C=C1)(=O)=O)C4=CC=C(C5=NC=CC=C5)C=C4] |  | 
23 |  | 9 | 21 | 42.5% |  | COc1cccc(CN(CCSc2ccccc2)Cc2ccc(S(=O)(=O)NC(=O)c3ccc(C(c4c[nH]c5ccccc45)c4c[nH]c5ccccc45)cc3)cc2)c1 [SZ17TA31, O=S(C1=CC=C(C=C1)CN(CCSC2=CC=CC=C2)CC3=CC=CC(OC)=C3)(NC(C(C=C4)=CC=C4C(C5=CNC6=C5C=CC=C6)C7=CNC8=C7C=CC=C8)=O)=O] |  | 
24 |  |  |  | > 99% |  | Cc1cc(OCCCc2c(C(=O)NS(=O)(=O)c3ccc(C(=O)O)o3)[nH]c3c(-c4c(C)nn(C)c4C)c(Cl)ccc23)cc(C)c1Cl [compound 60, O=C(NS(C1=CC=C(C(O)=O)O1)(=O)=O)C2=C(CCCOC3=CC(C)=C(Cl)C(C)=C3)C4=CC=C(Cl)C(C5=C(C)N(C)N=C5C)=C4N2, reference compound] |  | 

Row | Structure (SMILES) | KTGS hit call against Mcl-1 [1] | Amplification coefficient 1TA x 1SZ [3] | Amplification coefficient 5TA x 38SZ [1] | inhibition at 50 µM ([2]; FP) | IC50 [2, 4] | inhibition at 100 µM [2] | IC50 ([2]; IC50 on Mcl-1)
25 | O=C(NS(=O)(=O)c1ccc(CN(CCSc2ccccc2)Cc2c(F)cccc2Cl)cc1)c1cccc2ccccc12 [SZ15TA7, O=C(NS(C1=CC=C(CN(CCSC2=CC=CC=C2)CC3=C(F)C=CC=C3Cl)C=C1)(=O)=O)C4=C(C=CC=C5)C5=CC=C4] |  | 9 | 8 | 98.4% |  |  | 15.4 µM
26 | COc1ccc(Cc2ccc(C(=O)NS(=O)(=O)c3ccc(CN(CCSc4ccccc4)Cc4c(F)cccc4Cl)cc3)cc2)c(OC)c1OC [SZ15TA24, O=C(NS(C1=CC=C(CN(CCSC2=CC=CC=C2)CC3=C(F)C=CC=C3Cl)C=C1)(=O)=O)C4=CC=C(CC5=CC=C(OC)C(OC)=C5OC)C=C4] |  | 15 | 20 | 70.8% |  |  | 
27 | COc1cccc(CN(CCSc2ccccc2)Cc2ccc(S(=O)(=O)NC(=O)c3ccc(Cc4ccc(OC)c(OC)c4OC)cc3)cc2)c1 [SZ17TA24, O=C(NS(C1=CC=C(CN(CCSC2=CC=CC=C2)CC3=CC(OC)=CC=C3)C=C1)(=O)=O)C4=CC=C(CC5=CC=C(OC)C(OC)=C5OC)C=C4] |  | 5 | 9 | 74.1% |  |  | 
